According to patent publication US4965250A, “Peptide compounds having a nitrogenous polycyclic structure” (Adir ET CIE, priority 1987, dated 1990):

Test system: polynuclear leukocytes present in the whole blood of dogs
Assay type: cell-based
Method: The compounds according to the invention were tested for their capacity to increase non-specific phagocytosis. This test consists in measuring, after treatment by flow cytometry, the capacity of the polynuclear leukocytes present in the whole blood of dogs to phagocytose latex beads 1.8 μm in diameter, on the one hand in the absence (control) and on the other hand in the presence of a compound of the invention.

C[C@H]1OC(=O)N[C@@H]1C(=O)N[C@@H](CCCCN)C(=O)N1C2CCC(CC2)[C@H]1C(=O)N[C@@H](CCCNC(=N)N)C(=O)O [Example 1, Cyclo(S)Thr-(S)Lys-(S)ABO-(S)Arg-OH]
increase relative to the control of the capacity of the polynuclear leukocytes for non-specific phagocytosis: 19%
